ChEMBL document CHEMBL3886818, “Pyrazole carboxamides as Janus kinase inhibitors” (2016)

Legend:
[1] = molecular target: Tyrosine-protein kinase JAK1 (Homo sapiens, UniProt P23458); assay: Subsequent reagent additions employed an Agilent Bravo.
[2] = molecular target: Tyrosine-protein kinase JAK2 (Homo sapiens, UniProt O60674)
Sequence of Tyrosine-protein kinase JAK2 (O60674 whole entry): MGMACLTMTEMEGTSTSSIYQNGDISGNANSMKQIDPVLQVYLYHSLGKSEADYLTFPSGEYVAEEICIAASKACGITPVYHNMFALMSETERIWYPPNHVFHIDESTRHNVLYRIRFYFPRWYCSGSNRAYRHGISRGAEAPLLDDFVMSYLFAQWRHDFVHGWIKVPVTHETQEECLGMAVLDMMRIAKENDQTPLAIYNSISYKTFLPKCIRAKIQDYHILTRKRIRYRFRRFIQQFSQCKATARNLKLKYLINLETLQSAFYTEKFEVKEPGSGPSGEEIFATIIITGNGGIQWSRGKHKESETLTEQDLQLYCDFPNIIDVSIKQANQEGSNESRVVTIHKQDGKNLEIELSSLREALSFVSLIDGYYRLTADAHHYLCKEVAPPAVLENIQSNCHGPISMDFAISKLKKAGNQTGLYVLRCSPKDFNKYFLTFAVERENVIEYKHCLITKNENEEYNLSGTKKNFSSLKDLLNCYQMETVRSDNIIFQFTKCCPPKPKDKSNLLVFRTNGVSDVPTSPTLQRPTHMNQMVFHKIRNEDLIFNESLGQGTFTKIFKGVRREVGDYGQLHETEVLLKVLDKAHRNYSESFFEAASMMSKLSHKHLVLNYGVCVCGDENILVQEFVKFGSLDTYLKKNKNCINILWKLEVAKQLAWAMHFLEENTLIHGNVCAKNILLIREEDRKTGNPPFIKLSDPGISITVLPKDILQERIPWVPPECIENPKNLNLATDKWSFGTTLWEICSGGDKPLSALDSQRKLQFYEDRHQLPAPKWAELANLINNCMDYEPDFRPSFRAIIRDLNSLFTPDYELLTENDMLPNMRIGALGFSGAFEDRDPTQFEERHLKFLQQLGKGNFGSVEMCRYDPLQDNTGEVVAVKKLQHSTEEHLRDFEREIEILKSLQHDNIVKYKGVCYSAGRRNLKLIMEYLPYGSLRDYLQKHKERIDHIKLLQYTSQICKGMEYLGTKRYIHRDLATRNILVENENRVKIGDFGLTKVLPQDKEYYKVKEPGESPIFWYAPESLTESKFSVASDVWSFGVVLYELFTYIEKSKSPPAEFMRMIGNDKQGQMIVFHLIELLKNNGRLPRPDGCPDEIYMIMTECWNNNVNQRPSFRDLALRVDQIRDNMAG

Sequence of Tyrosine-protein kinase JAK1 (P23458 whole entry): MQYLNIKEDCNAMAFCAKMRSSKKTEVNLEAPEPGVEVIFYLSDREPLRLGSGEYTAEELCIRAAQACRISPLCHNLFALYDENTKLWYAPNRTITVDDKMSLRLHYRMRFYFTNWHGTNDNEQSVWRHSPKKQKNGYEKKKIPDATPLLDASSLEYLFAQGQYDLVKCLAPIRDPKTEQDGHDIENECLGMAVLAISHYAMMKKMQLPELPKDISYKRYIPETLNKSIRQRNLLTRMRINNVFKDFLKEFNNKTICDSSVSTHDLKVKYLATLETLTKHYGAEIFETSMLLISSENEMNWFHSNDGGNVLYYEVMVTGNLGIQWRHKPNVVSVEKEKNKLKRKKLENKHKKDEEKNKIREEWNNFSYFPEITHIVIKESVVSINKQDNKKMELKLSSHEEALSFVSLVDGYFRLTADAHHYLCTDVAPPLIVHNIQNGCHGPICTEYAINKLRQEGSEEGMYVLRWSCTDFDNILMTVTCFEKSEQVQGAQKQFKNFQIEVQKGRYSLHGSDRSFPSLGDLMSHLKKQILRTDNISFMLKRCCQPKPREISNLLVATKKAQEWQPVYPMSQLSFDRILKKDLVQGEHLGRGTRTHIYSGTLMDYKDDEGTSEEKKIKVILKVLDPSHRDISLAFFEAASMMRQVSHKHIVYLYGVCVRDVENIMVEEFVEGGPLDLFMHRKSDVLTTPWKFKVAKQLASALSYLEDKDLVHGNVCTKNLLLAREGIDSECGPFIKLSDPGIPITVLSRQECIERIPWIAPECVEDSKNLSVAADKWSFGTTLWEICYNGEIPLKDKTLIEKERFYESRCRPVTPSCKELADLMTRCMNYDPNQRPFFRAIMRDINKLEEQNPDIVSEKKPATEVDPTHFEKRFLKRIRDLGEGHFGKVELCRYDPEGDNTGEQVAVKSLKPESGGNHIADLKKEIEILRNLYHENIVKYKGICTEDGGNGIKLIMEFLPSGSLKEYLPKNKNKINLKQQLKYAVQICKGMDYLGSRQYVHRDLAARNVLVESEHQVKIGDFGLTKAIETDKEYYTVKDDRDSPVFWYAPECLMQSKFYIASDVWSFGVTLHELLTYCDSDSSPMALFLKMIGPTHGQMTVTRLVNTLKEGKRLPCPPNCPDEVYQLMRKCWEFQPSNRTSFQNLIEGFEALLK

IC50 [1]: 0.2 nM
IC50 [2]: 1 nM
SMILES: N#C[C@H]1CCOC[C@@H]1n1cc(C(N)=O)c(Nc2ccc(OC(F)(F)F)cc2)n1 (single isomer, unassigned)
